Laboratory results: US9410100B2, “Tritylated ethers” (ANGUS Chemical Company, priority 2012, dated 2016)

Tests used:
[1] = Solubility studies of functionalized tritylated phenol ethers in solvents; assay type: physicochemical
Experimental: The solubility properties of functionalized tritylated phenol ethers were determined by mixing 0.1 gram samples of sample in 0.9 grams of solvent. The mixtures were warmed at 60° C. for a few minutes to make homogeneous solutions. The solutions were cooled back to room temperature, and then they were placed into a freezer at −10° C. The solutions were checked daily to see if crystallization had occurred.

Structure (SMILES)	melting point [°C]	Solubility at RT ([1]; 10 wt % in 1-Octanol, cooled to room temperature)	Solubility at 60 C. ([1]; 10 wt % in 1-Octanol, warmed at 60 C)	Solubility at RT ([1]; 10 wt % in AROMATIC 200, cooled to room temperature)	Solubility at 60 C. ([1]; 10 wt % in AROMATIC 200, warmed at 60 C)	Solubility at RT ([1]; 10 wt % in DMAc, cooled to room temperature)	Solubility at 60 C. ([1]; 10 wt % in DMAc, warmed at 60 C)	Solubility at RT ([1]; 10 wt % in DPGME, cooled to room temperature)	Solubility at 60 C. ([1]; 10 wt % in DPGME, warmed at 60 C)	Solubility at RT ([1]; 10 wt % in NMP, cooled to room temperature)	Solubility at 60 C. ([1]; 10 wt % in NMP, warmed at 60 C)	Solubility at RT ([1]; 10 wt % in Tetralin, cooled to room temperature)	Solubility at 60 C. ([1]; 10 wt % in Tetralin, warmed at 60 C)
OCCCCCCOc1ccc(C(c2ccccc2)(c2ccccc2)c2ccccc2)cc1 [compound 1, 6-(4-Tritylphenoxy)hexan-1-ol]	158 to 161	–	–	–	–	–	–	–	–	–	–	–	–
OCCCCCCOc1ccc(C(c2ccccc2)(c2ccccc2)c2ccccc2)cc1OCCCCCCO [Ex. 4, 6,6′-((4-trityl-1,2-phenylene)bis(oxy))bis(hexan-1-ol)]	81 to 84	soluble	soluble	insoluble	insoluble	soluble	soluble	soluble	soluble	soluble	soluble	insoluble	soluble
